Where two headings read alike, the source gives them in different places.
Experiments:
[1] = test system: Green Peach Aphid (Myzus Persicae); assay: Insecticidal test for green peach aphid in foliar spray assay (col. MYZUPE); assay type: in vivo; conditions: Myzus persicae, 72 h, read-out: MYZUPE 200 ppm (Corrected % Control, rating)
In short: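 Cabbage seedlings with 2-3 true leaves, infested with 20-50 wingless adult and nymph aphids one day earlier, sprayed to runoff at 200 ppm (acetone/methanol stock diluted in 0.025% Tween 20), four pots per treatment. After 3 days at ~25 °C, 40% RH, live aphids counted; corrected % control versus solvent-sprayed plants.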

[2] = test system: Sweetpotato Whitefly-Crawler (Bemisia Tabaci); assay: Insecticidal test for sweetpotato whitefly-crawler in foliar spray assay (col. BEMITA); assay type: in vivo; conditions: Bemisia tabaci, read-out: BEMITA 200 ppm (Corrected % Control, rating)
In short: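 Cotton plants (one 3-5 cm true leaf) infested with whitefly eggs (100-300/plant), held 5-6 days at 82° F, 50% RH until crawlers developed. Sprayed to runoff at 200 ppm (acetone stock diluted in 0.025% Tween 20), four plants per treatment. Live nymphs counted after 8-9 days; % control by Abbott's correction versus solvent check.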

For `CC(=O)N(C)c1cnc(-c2cccnc2)s1` [Compound 22], the melting point was 162 to 163 °C, the pest or weed control at 200 ppm ([1]; green peach aphid) was < 80% and the pest or weed control at 200 ppm ([2]; sweetpotato whitefly-crawler) was < 80%.

For `CC(C)(C)OC(=O)N(C(=O)OC(C)(C)C)c1sc(-c2cncc(F)c2)nc1Br` [Compound 317], the melting point was 154 to 156 °C, the pest or weed control at 200 ppm ([1]; green peach aphid) was 80 to 100% and the pest or weed control at 200 ppm ([2]; sweetpotato whitefly-crawler) was < 80%.

`COCC(C)OC(=O)Nc1sc(-c2cccnc2)nc1C` (stereo not drawn) [Compound 325] gave a melting point of 106 to 111 °C, a pest or weed control at 200 ppm ([1]; green peach aphid) of 80 to 100% and a pest or weed control at 200 ppm ([2]; sweetpotato whitefly-crawler) of 80 to 100%.

In the case of `COCCOC(=O)Nc1sc(-c2cccnc2)nc1C` [Compound 379], the melting point is reported as 131 to 134 °C, the pest or weed control at 200 ppm ([1]; green peach aphid) is reported as 80 to 100% and the pest or weed control at 200 ppm ([2]; sweetpotato whitefly-crawler) is reported as < 80%.

For `Cc1nc(-c2cncc(F)c2)sc1NC(=O)C(C)C` [Compound 140], the melting point was 155 to 159 °C, the pest or weed control at 200 ppm ([1]; green peach aphid) was 80 to 100% and the pest or weed control at 200 ppm ([2]; sweetpotato whitefly-crawler) was < 80%.

Compound `CC(C)(C)OC(=O)N(C(=O)OC(C)(C)C)c1cnc(-c2cncc(F)c2)s1` [Compound 277, di(tert-butyl)2-(5-fluoropyridin-3-yl)-1,3-thiazol-5-ylimidodicarbonate] has a melting point of 94 to 96 °C, a pest or weed control at 200 ppm ([1]; green peach aphid) of 80 to 100% and a pest or weed control at 200 ppm ([2]; sweetpotato whitefly-crawler) of 80 to 100%.

For `CC(C)(C)OC(=O)Nc1sc(-c2cccnc2)nc1F` [Compound 478], the melting point was 184 to 186 °C, the pest or weed control at 200 ppm ([1]; Abbott's correction formula) was 80 to 100% and the pest or weed control at 200 ppm ([2]; Abbott's correction formula) was < 80%.

For `CC(C[S+](C)[O-])C(=O)Nc1sc(-c2cncc(F)c2)nc1Br` (stereo not drawn) [Compound 306], the melting point was 172 to 175 °C, the pest or weed control at 200 ppm ([1]; green peach aphid) was 80 to 100% and the pest or weed control at 200 ppm ([2]; sweetpotato whitefly-crawler) was < 80%.

`CCCC(C)OC(=O)Nc1sc(-c2cccnc2)nc1C` (stereo not drawn) [Compound 376] gave a melting point of 88 to 94 °C, a pest or weed control at 200 ppm ([1]; green peach aphid) of 80 to 100% and a pest or weed control at 200 ppm ([2]; sweetpotato whitefly-crawler) of 80 to 100%.

With `CCc1cc(C(=O)Nc2sc(-c3cccnc3)nc2C)no1` [Compound 387] the melting point was 129 to 130 °C, the pest or weed control at 200 ppm ([1]; green peach aphid) was < 80% and the pest or weed control at 200 ppm ([2]; sweetpotato whitefly-crawler) was 80 to 100%.

In the case of `CCN(C(=O)c1cocn1)c1sc(-c2cccnc2)nc1Cl` [Compound 570], the melting point is reported as 118 to 120 °C, the pest or weed control at 200 ppm ([1]; Abbott's correction formula) is reported as 80 to 100% and the pest or weed control at 200 ppm ([2]; Abbott's correction formula) is reported as < 80%.

With `CN(C(=O)OC(C)(C)C)c1sc(-c2cncc(F)c2)nc1Br` [Compound 318] the melting point was 108 to 110 °C, the pest or weed control at 200 ppm ([1]; green peach aphid) was 80 to 100% and the pest or weed control at 200 ppm ([2]; sweetpotato whitefly-crawler) was < 80%.

In the case of `COC(=O)CCC(=O)Nc1sc(-c2cccnc2)nc1C` [Compound 197], the melting point is reported as 151 to 153 °C, the pest or weed control at 200 ppm ([1]; green peach aphid) is reported as 80 to 100% and the pest or weed control at 200 ppm ([2]; sweetpotato whitefly-crawler) is reported as < 80%.

For `CN(C(=O)c1cccnc1)c1cnc(-c2cccnc2)s1` [Compound 26], the melting point was 173 to 175 °C, the pest or weed control at 200 ppm ([1]; green peach aphid) was < 80% and the pest or weed control at 200 ppm ([2]; sweetpotato whitefly-crawler) was < 80%.

Work on `Cc1nc(-c2cccnc2)sc1NC(=O)C(C)C` [Compound 58] yielded a melting point of 159 to 162 °C, a pest or weed control at 200 ppm ([1]; green peach aphid) of 80 to 100% and a pest or weed control at 200 ppm ([2]; sweetpotato whitefly-crawler) of 80 to 100%.

`CSC(C)CC(=O)Nc1sc(-c2cccnc2)nc1Cl` (stereo not drawn) [Compound 487] gave a melting point of 120 to 125 °C, a pest or weed control at 200 ppm ([1]; Abbott's correction formula) of 80 to 100% and a pest or weed control at 200 ppm ([2]; Abbott's correction formula) of 80 to 100%.

For `Cc1nc(-c2cccnc2)sc1NC(=O)c1cccc(SC(F)F)c1` [Compound 381], the melting point was 158 to 159 °C, the pest or weed control at 200 ppm ([1]; green peach aphid) was < 80% and the pest or weed control at 200 ppm ([2]; sweetpotato whitefly-crawler) was < 80%.

In the case of `CC(C)C(=O)N(C)c1cnc(-c2ccc(Cl)nc2)s1` [Compound 69], the melting point is reported as 155 to 159 °C, the pest or weed control at 200 ppm ([1]; green peach aphid) is reported as < 80% and the pest or weed control at 200 ppm ([2]; sweetpotato whitefly-crawler) is reported as 80 to 100%.

`CN(C(=O)CC[S+](C)[O-])c1sc(-c2cncc(F)c2)nc1F` (stereo not drawn) [Compound 392] gave a melting point of 113 to 116 °C, a pest or weed control at 200 ppm ([1]; green peach aphid) of 80 to 100% and a pest or weed control at 200 ppm ([2]; sweetpotato whitefly-crawler) of 80 to 100%.

In the case of `CN(C(=O)C(C)(C)C)c1cnc(-c2cccnc2)s1` [Compound 23], the melting point is reported as 102 to 105 °C, the pest or weed control at 200 ppm ([1]; green peach aphid) is reported as 80 to 100% and the pest or weed control at 200 ppm ([2]; sweetpotato whitefly-crawler) is reported as < 80%.

With `CCN(C(=O)CC[S+](C)[O-])c1sc(-c2cccnc2)nc1C` (stereo not drawn) [Compound 238] the melting point was 89 to 92 °C, the pest or weed control at 200 ppm ([1]; green peach aphid) was 80 to 100% and the pest or weed control at 200 ppm ([2]; sweetpotato whitefly-crawler) was 80 to 100%.

Work on `CSCC(C)(C)C(=O)N(C)c1cnc(-c2ccc(Cl)nc2)s1` [Compound 68] yielded a melting point of 104 to 108 °C, a pest or weed control at 200 ppm ([1]; green peach aphid) of 80 to 100% and a pest or weed control at 200 ppm ([2]; sweetpotato whitefly-crawler) of 80 to 100%.

With `CCN(C(=O)c1cc(Cl)cc(Cl)c1)c1sc(-c2cccnc2)nc1Cl` [Compound 564] the melting point was 172 to 174 °C, the pest or weed control at 200 ppm ([1]; Abbott's correction formula) was < 80% and the pest or weed control at 200 ppm ([2]; Abbott's correction formula) was < 80%.

In the case of `CN(C(=O)CC[S+](C)[O-])c1sc(-c2cncc(F)c2)nc1Br` (stereo not drawn) [Compound 454], the melting point is reported as 170 to 173 °C, the pest or weed control at 200 ppm ([1]; Abbott's correction formula) is reported as 80 to 100% and the pest or weed control at 200 ppm ([2]; Abbott's correction formula) is reported as 80 to 100%.

Reference: patent US8853246B2 (Dow AgroSciences LLC, priority 2009, dated 2014)
